Laboratory results taken from ChEMBL document CHEMBL3991601, “The target landscape of clinical kinase drugs” (Science, 2017).
Activity calls are given as the source filed them. Rule as the data show it, for most assays here: actives have a measured Kd and inactives only a lower limit.

Key:
[1] = target: Activin receptor type-2B (Homo sapiens, UniProt Q13705)
[2] = target: Cyclin-dependent kinase 3 (Homo sapiens, UniProt Q00526)
[3] = target: T1, Serine/threonine-protein kinase Nek1 (Homo sapiens, UniProt Q96PY6)
T1 sequence (Q96PY6 whole entry): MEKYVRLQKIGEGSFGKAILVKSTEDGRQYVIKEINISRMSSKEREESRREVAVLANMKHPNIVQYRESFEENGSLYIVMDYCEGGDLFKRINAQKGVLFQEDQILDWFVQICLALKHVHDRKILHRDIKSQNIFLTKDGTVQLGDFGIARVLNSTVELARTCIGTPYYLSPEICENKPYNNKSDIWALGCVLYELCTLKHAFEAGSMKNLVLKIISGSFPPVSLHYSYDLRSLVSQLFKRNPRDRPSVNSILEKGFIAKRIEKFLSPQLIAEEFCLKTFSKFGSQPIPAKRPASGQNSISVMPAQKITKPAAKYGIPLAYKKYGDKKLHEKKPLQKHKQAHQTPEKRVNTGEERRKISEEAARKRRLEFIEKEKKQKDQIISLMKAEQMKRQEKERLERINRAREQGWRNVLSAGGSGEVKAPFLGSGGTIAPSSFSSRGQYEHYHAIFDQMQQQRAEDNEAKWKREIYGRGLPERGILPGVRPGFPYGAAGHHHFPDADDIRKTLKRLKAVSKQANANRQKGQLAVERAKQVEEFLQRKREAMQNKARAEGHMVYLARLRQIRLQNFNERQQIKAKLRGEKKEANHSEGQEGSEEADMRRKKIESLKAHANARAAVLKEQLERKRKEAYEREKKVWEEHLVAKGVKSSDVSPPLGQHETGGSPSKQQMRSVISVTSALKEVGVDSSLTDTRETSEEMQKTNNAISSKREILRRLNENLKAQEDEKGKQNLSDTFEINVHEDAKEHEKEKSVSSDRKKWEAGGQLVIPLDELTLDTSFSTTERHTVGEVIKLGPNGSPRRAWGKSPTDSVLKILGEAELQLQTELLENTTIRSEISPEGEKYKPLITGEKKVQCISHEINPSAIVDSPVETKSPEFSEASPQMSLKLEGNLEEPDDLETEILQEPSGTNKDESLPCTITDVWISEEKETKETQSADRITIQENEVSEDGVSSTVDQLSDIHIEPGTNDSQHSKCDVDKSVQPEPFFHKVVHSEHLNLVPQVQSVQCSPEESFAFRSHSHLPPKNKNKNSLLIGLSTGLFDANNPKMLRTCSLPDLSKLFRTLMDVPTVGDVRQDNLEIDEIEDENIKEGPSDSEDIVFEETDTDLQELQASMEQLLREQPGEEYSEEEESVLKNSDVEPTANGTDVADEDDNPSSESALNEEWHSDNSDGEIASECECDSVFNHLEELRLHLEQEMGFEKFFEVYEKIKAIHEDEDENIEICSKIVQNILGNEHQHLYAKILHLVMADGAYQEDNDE

[4] = target: Tyrosine-protein kinase Fyn (Homo sapiens, UniProt P06241)
Sequence of Tyrosine-protein kinase Fyn (P06241 whole entry): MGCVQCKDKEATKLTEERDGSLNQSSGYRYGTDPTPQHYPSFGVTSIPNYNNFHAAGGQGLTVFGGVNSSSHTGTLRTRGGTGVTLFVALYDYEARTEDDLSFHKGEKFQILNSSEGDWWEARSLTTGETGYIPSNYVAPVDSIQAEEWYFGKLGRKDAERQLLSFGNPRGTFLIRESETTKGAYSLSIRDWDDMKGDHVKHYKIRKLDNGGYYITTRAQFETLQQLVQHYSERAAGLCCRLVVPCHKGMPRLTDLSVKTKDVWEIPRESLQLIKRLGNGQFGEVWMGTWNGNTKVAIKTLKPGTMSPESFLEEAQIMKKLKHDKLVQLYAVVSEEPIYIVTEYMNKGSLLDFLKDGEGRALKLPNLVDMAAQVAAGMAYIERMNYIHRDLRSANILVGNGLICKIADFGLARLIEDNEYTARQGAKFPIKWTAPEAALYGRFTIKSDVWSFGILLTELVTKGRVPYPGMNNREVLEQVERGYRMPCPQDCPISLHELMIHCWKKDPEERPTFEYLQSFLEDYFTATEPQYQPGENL

[5] = target: Activated CDC42 kinase 1 (Homo sapiens, UniProt Q07912)
Sequence of Activated CDC42 kinase 1 (Q07912 whole entry): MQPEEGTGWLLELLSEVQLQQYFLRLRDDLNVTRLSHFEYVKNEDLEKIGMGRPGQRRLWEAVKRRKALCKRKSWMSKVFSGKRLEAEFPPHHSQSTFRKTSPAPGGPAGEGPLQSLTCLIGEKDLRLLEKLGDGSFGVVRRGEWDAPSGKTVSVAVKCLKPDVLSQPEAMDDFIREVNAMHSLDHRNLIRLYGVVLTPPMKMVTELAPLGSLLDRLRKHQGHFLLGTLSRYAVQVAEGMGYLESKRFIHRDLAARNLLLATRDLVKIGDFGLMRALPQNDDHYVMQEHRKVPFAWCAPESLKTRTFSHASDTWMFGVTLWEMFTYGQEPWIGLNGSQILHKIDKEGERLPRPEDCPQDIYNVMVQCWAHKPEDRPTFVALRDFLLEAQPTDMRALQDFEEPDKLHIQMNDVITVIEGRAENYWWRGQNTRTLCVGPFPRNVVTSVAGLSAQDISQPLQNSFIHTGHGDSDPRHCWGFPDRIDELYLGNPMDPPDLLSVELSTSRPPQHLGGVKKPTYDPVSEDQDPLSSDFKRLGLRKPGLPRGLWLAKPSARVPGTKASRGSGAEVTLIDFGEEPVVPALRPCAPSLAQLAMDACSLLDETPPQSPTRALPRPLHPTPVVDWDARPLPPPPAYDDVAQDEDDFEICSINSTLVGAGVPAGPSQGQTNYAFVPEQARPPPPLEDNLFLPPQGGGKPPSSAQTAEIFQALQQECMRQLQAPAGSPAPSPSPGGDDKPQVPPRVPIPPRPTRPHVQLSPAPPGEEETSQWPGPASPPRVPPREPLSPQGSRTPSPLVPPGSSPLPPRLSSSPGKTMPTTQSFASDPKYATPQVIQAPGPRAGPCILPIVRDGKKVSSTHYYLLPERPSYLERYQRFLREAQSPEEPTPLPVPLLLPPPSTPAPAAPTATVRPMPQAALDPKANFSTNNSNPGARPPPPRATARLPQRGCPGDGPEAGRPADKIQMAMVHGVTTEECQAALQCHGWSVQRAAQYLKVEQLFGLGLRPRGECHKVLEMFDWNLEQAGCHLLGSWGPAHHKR

[6] = target: Adenosine kinase (Homo sapiens, UniProt P55263)
Sequence of Adenosine kinase (P55263 whole entry): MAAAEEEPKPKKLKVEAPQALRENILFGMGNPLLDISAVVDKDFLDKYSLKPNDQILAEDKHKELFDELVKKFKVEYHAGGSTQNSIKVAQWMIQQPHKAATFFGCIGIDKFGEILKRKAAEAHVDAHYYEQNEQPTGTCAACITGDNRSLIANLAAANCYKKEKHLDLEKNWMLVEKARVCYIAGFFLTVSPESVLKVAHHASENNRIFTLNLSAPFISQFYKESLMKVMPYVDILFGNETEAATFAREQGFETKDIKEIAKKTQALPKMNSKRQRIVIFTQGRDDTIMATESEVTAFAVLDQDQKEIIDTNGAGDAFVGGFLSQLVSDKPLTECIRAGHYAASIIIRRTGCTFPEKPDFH

[7] = target: T2, Mitogen-activated protein kinase kinase kinase 2 (Homo sapiens, UniProt Q9Y2U5)
T2 sequence (Q9Y2U5 whole entry): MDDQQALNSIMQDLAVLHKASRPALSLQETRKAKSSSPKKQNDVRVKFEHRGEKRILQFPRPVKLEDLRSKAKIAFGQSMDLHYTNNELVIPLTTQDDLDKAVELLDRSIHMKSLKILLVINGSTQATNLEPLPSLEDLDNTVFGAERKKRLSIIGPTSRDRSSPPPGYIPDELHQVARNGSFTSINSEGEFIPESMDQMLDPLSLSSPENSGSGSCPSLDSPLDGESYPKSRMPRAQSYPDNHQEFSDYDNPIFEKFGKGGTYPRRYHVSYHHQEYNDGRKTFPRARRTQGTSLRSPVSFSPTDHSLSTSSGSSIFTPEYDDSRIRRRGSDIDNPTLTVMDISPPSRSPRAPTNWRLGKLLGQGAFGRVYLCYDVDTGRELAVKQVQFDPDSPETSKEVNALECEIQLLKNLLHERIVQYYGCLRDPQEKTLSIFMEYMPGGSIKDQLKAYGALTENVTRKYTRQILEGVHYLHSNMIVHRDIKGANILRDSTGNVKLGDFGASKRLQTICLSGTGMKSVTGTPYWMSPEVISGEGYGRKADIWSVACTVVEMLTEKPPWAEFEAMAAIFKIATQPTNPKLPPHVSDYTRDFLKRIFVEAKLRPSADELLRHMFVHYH

[8] = target: T3, Serine/threonine-protein kinase D2 (Homo sapiens, UniProt Q9BZL6)
T3 sequence (Q9BZL6 whole entry): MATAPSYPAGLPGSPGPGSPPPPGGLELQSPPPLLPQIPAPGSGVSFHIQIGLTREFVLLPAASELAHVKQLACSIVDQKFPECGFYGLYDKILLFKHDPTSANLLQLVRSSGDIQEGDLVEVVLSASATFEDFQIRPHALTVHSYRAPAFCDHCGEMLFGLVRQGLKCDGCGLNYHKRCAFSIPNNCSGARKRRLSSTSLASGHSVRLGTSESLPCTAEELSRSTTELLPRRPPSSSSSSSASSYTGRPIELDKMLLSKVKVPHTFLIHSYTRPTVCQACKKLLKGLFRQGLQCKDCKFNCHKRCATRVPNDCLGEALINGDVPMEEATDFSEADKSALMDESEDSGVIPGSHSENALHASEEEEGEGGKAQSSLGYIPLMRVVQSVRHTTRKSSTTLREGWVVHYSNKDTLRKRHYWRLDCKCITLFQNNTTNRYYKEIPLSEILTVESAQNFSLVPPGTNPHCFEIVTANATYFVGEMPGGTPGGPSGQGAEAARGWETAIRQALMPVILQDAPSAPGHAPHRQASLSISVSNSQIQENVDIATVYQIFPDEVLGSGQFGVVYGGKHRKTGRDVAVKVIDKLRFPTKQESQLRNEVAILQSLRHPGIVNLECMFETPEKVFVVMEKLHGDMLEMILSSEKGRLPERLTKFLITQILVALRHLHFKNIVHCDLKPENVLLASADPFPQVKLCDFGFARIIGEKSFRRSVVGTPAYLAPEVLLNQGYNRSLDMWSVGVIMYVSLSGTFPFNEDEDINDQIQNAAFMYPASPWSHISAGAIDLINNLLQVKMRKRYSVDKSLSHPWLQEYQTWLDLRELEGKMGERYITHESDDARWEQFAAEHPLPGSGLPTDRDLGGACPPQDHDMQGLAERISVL

[9] = target: TGF-beta receptor type-2 (Homo sapiens, UniProt P37173)
Sequence of TGF-beta receptor type-2 (P37173 whole entry): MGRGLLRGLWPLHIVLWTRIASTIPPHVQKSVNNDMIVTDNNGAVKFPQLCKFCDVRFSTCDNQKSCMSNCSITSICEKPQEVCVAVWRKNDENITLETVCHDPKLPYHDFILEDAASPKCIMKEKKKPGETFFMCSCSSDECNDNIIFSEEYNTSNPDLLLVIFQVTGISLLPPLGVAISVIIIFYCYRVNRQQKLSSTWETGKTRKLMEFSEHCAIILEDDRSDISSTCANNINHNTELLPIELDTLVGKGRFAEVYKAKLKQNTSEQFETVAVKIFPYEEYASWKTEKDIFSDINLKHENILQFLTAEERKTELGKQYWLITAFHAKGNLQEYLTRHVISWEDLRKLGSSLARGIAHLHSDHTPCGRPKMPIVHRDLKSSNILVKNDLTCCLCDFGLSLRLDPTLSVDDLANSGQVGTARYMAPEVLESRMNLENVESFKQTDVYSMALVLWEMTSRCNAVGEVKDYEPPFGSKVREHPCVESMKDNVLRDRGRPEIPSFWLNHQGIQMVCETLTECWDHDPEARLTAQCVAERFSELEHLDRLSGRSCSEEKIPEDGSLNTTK
Also: in the data inactive means no Kd found up to 30 µM.

Sequence of Activin receptor type-2B (Q13705 whole entry): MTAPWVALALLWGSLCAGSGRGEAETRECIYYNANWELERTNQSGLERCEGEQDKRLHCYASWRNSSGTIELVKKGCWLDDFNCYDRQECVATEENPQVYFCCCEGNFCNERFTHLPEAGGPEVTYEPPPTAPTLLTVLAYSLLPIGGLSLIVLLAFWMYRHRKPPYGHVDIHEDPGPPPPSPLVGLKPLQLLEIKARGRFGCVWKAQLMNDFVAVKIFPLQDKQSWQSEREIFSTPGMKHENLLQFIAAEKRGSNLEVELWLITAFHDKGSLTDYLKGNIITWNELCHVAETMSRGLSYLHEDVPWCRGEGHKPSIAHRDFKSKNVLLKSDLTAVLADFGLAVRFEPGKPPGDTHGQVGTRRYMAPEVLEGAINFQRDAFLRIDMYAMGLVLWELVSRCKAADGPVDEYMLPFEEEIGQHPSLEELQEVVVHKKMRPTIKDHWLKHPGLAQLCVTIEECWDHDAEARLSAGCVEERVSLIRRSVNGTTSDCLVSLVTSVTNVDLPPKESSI
Sequence of Cyclin-dependent kinase 3 (Q00526 whole entry): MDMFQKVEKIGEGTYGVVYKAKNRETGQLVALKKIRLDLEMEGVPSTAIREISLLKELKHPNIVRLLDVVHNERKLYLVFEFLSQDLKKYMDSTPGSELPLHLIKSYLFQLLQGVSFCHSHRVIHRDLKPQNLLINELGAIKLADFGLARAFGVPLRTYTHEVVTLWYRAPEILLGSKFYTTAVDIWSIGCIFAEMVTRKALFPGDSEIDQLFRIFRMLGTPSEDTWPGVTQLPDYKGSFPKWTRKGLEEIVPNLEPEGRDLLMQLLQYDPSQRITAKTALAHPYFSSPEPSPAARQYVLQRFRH

Kd [1]	Kd [2]	Kd [3]	Kd [4]	Kd [5]	Kd [6]	Kd [7]	Kd [8]	Kd [9]	SMILES
> 30 µM (inactive)	> 30 µM (inactive)	> 30 µM (inactive)	> 30 µM (inactive)	> 30 µM (inactive)	> 30 µM (inactive)	> 30 µM (inactive)	> 30 µM (inactive)	> 30 µM (inactive)	C=CC(=O)Nc1cccc(Nc2nc(Nc3ccc(N4CCN(C(C)=O)CC4)cc3OC)ncc2C(F)(F)F)c1 [ROCILETINIB]
> 30 µM (inactive)	> 30 µM (inactive)	> 30 µM (inactive)	> 30 µM (inactive)	> 30 µM (inactive)	> 30 µM (inactive)	> 30 µM (inactive)	> 30 µM (inactive)	> 30 µM (inactive)	O=C(O)c1ccc2c(c1)nc(Nc1cccc(Cl)c1)c1ccncc12 [SILMITASERTIB]
> 30 µM (inactive)	> 30 µM (inactive)	> 30 µM (inactive)	> 30 µM (inactive)	> 30 µM (inactive)	> 30 µM (inactive)	> 30 µM (inactive)	> 30 µM (inactive)	> 30 µM (inactive)	Cn1c(=O)c(F)c(Nc2ccc(I)cc2F)c2c(=O)n(C[C@@H](O)CO)cnc21 [TAK-733]
> 30 µM (inactive)	> 30 µM (inactive)	> 30 µM (inactive)	> 30 µM (inactive)	> 30 µM (inactive)	> 30 µM (inactive)	> 30 µM (inactive)	> 30 µM (inactive)	> 30 µM (inactive)	O[C@H]1CC[C@H](Nc2ncc3nc(Nc4c(F)cc(F)cc4F)n([C@H]4CCOC4)c3n2)CC1 [TANZISERTIB]
> 30 µM (inactive)	> 30 µM (inactive)	> 30 µM (inactive)	> 30 µM (inactive)	> 30 µM (inactive)	> 30 µM (inactive)	> 30 µM (inactive)	> 30 µM (inactive)	> 30 µM (inactive)	CNC(=O)c1cc(COc2nnc(Nc3ccc(Cl)cc3)c3ccoc23)ccn1 [TELATINIB]
0.419 µM	> 30 µM (inactive)	> 30 µM (inactive)	> 30 µM (inactive)	> 30 µM (inactive)	> 30 µM (inactive)	> 30 µM (inactive)	> 30 µM (inactive)	0.703 µM (active)	Cc1cc(-c2cc(OC(=O)c3ccccc3)ccc2Cl)cc2nnc(Nc3ccc(OCCN4CCCC4)cc3)nc12 [TG100-801]
> 30 µM (inactive)	> 30 µM (inactive)	> 30 µM (inactive)	> 30 µM (inactive)	> 30 µM (inactive)	> 30 µM (inactive)	> 30 µM (inactive)	> 30 µM (inactive)	> 30 µM (inactive)	C[C@@H]1COC(Nc2ccc3ncnc(Nc4ccc(OCc5nccs5)c(Cl)c4)c3c2)=N1 [VARLITINIB]
> 30 µM (inactive)	> 30 µM (inactive)	> 30 µM (inactive)	> 30 µM (inactive)	> 30 µM (inactive)	> 30 µM (inactive)	> 30 µM (inactive)	> 30 µM (inactive)	> 30 µM (inactive)	CNC(=O)c1cccc(-c2ccc3c(N4CCOC[C@@H]4C)nc(N4CCOC[C@@H]4C)nc3n2)c1 [VISTUSERTIB]
> 30 µM (inactive)	> 30 µM (inactive)	> 30 µM (inactive)	> 30 µM (inactive)	> 30 µM (inactive)	> 30 µM (inactive)	> 30 µM (inactive)	> 30 µM (inactive)	> 30 µM (inactive)	COc1cc2ncnc(Nc3ccc(O)cc3)c2cc1OC [WHI-P131]

SMILES	Kd [1]	Kd [2]	Kd [3]	Kd [4]	Kd [5]	Kd [6]	Kd [7]	Kd [8]	Kd [9]
COc1cc(F)c(F)c(Nc2ccc(I)cc2F)c1NS(=O)(=O)C1(C[C@H](O)CO)CC1 [REFAMETINIB]	> 30 µM (inactive)	> 30 µM (inactive)	> 30 µM (inactive)	> 30 µM (inactive)	> 30 µM (inactive)	> 30 µM (inactive)	> 30 µM (inactive)	> 30 µM (inactive)	> 30 µM (inactive)
COCCN1CCN(Cc2ccc(-c3n[nH]c4c3C(=O)c3c(NC(=O)NN5CCOCC5)cccc3-4)cc2)CC1 [RGB-286638]	> 30 µM (inactive)	> 30 µM (inactive)	> 30 µM (inactive)	> 30 µM (inactive)	> 30 µM (inactive)	> 30 µM (inactive)	> 30 µM (inactive)	0.195 µM (active)	0.08 µM (active)
C=CCN(/C=C1/C(=O)O[C@H](COC)[C@@]2(C)C1=C(O)C(=O)C1=C2[C@H](OC(C)=O)C[C@]2(C)C(=O)CC[C@@H]12)CC=C [SONOLISIB]	> 30 µM (inactive)	> 30 µM (inactive)	> 30 µM (inactive)	> 30 µM (inactive)	> 30 µM (inactive)	> 30 µM (inactive)	> 30 µM (inactive)	> 30 µM (inactive)	> 30 µM (inactive)
CN1CCN(c2nc(C3=C(c4c[nH]c5ccccc45)C(=O)NC3=O)c3ccccc3n2)CC1 [SOTRASTAURIN]	> 30 µM (inactive)	> 30 µM (inactive)	> 30 µM (inactive)	> 30 µM (inactive)	> 30 µM (inactive)	> 30 µM (inactive)	> 30 µM (inactive)	> 30 µM (inactive)	> 30 µM (inactive)
